Results as given in patent US20060025380A1, “Formulations for non-parenteral use including hydrophobic cyclodextrins” (deCODE Chemistry Inc, priority 2004, published 2006).

Test: Solubility of drug in aqueous cyclodextrin complexation media (dissolved drug by HPLC)
Format: physicochemical
Protocol: General procedure: Zero to 40% w/v of various cyclodextrins were dissolved in 0.25% (w/v) PVP polymer, 50 mM MgCl2 solutions with 50 to 150 mM of various amino acids, resulting in an aqueous complexation media. An excess amount of drug was added to the aqueous complexation media, with the suspension formed then sonicated for 60 minutes at 75° C. (some drugs can also be heated at 121° C. for 20 minutes in autoclave). After an equilibrium period, the drug suspensions were filtered and the amount of dissolved drug was determined by HPLC.
To provide further information as to a specific example, production of the third camptothecin formulation (with proline) listed below is described. 20% w/v of randomly methylated β-cyclodextrin was dissolved in 0.25% (w/v) CMC polymer, 50 mM MgCl2 solutions with 50 mM of Proline and 0.02M HCl (buffer). The drug concentration was 0.526±0.009 mg/ml.
To provide further information as to a specific example, production of the first trichlocarban formulation (with lysine) listed below is described. 20% w/v of randomly methlyated β-cyclodextrin was dissolved in 0.25% (w/v) PVP polymer, 50 mM MgCl2 solutions with 50 mM of L-Lysine hydrochloride. The drug concentration was 5.72±0.07 mg/ml.

| SMILES | Camptotechin (CPT) 20% RMβCD (50 mM Proline, 0.25% (w/v) CMC polymer, 50 mM MgCl2, 0.02M HCl) [mg/mL] | Camptotechin (CPT) 20% RMβCD (50 mM Proline, 0.25% (w/v) CMC polymer, 50 mM MgCl2, 0.02M HCl, listed as camptothecin) [mg/mL] | Camptotechin (CPT) 20% RMβCD (Cysteine) [mg/mL] | Camptotechin (CPT) 20% RMβCD (Lysine) [mg/mL] | Camptotechin (CPT) 20% RMβCD (No amino acid) [mg/mL] | Camptotechin (CPT) 20% RMβCD (Tryptophan) [mg/mL] | Camptotechin (CPT) 40% HPβCD (40% HPβCD (first column so headed, c2), Lysine) [mg/mL] | Camptotechin (CPT) 40% HPβCD (40% HPβCD (second column so headed, c3), Lysine) [mg/mL] | Trichlocarban (TCC) solubility, CD + poly [µg/mL] | Trichlocarban (TCC) solubility, CD no AA [µg/mL] | solubility of TCC with adipic acid [µg/mL] | solubility of TCC with poly-lysine [µg/mL] |
| --- | --- | --- | --- | --- | --- | --- | --- | --- | --- | --- | --- | --- |
| CC[C@@]1(O)C(=O)OCc2c1cc1n(c2=O)Cc2cc3ccccc3nc2-1 [Camptotechin, camptothecin] | 0.526 ± 0.009 | 0.526 ± 0.009 | 0.334 ± 0.025 | 0.285 ± 0.010 | 0.228 ± 0.009 | 0.375 ± 0.002 | 0.493 ± 0.015 | 0.439 ± 0.022 |  |  |  |  |
| O=C(Nc1ccc(Cl)cc1)Nc1ccc(Cl)c(Cl)c1 [Trichlocarban, trichlocarban] |  |  |  |  |  |  |  |  | 2300 ± 240 | 2050 ± 150 | 5190 ± 210 | 4810 ± 210 |
